Laboratory results taken from paper PMC9511493, “2-(Fluoromethoxy)-4′-(S-methanesulfonimidoyl)-1,1′-biphenyl (UCM-1306), an Orally Bioavailable Positive Allosteric Modulator of the Human Dopamine D1 Receptor for Parkinson’s Disease” (Journal of Medicinal Chemistry, 2022).

How the values were obtained:
human D1R [1] = target: T1, human D1R (Homo sapiens, UniProt P21728); experiment: potentiator-mode cAMP assay (HTRF) in SK-N-MC neuroblastoma cells endogenously expressing human D1R; type: cell-based; conditions: for EC50: potency of the compound at the DA EC70 concentration
T1 construct: endogenously expressed human D1R in the SK-N-MC cell line (ATCC); host or cells: SK-N-MC human neuroblastoma cells
Procedure: An in-house chemical library of 250 compounds was screened using an in vitro assay measuring accumulation of cAMP in a human neuroblastoma SK-N-MC cell line stably expressing physiological levels of the D1R but not the D5R.[41] To assess allosteric modulation of the D1R, cells were treated with a fixed concentration of the test compounds (10 μM) for 15 min and then co-incubated with increasing concentrations of the endogenous agonist DA. The cAMP concentration was quantified by homogeneous time-resolved fluorescence energy transfer (HTRF) and the effect of each compound on the DA concentration–response curve was measured.
The PAM efficacy was measured as the percentage of increase over DA EC70 and the potency as the EC50 observed in the concentration–response curve.
Functional studies at human D1 and D2 receptors were carried out in endogenously expressed human D1R in the SK-N-MC cell line (ATCC), and recombinant human D2R stably transfected in an in-house CHO cell line. Cells were thawed and seeded into a black 96-well plate (1 × 10^4 cells/well for SK-N-MC cell line, 5 × 10^3 cells/well for CHO cell line) in Opti-MEM containing 500 μM IBMX (3-isobutyl-1-methylxanthine).

human D5R = target: T2, human D5R (Homo sapiens, UniProt P21918); experiment: cAMP Hunter eXpress DRD5 assay at human D5R; type: cell-based; conditions: 10 μM compound
T2 construct: host or cells: cells supplied with the cAMP Hunter eXpress DRD5 assay kit
Procedure: Functional studies at human D5R receptors were carried out in human D5R, using a cAMP Hunter eXpress DRD5 assay kit from DiscoverX. Briefly, cells were plated and maintained for 24 h at 37 °C in a 5% CO2 atmosphere in the cell plating reagent provided in the kit. After this time, test compounds were added to the cells and incubated for 15 min at 37 °C, followed by treatment with dopamine and incubation for an additional 30 min at 37 °C. Cells were then treated with the cAMP working detection solution provided with the kit for 1 h, and then cAMP solution A was added and incubated for 3 h at rt. cAMP formation was measured by luminescence detection (integration time = 500 ms) in a Tecan M1000 Genius Pro reader. Data were normalized to dopamine maximum effect and fitted to a 4-parameter logistic equation using Prism v2.1 software (GraphPad Inc).

[2] = target: T3, human serum albumin (HSA) (Homo sapiens, UniProt P02768); experiment: HSA binding assay (TRANSIL XL); type: in vitro ADME; conditions: for HSA binding (%): at a concentration of 5 μM
T3 construct: purchased Sovicell TMP-0210-2096
Procedure: HSA binding assay. The assessment of compounds binding to HSA was performed by incubating a fixed concentration of the compound with different concentrations of immobilized HSA, using the TRANSILXL HSA Binding Kit (TMP-0210- 2096, Sovicell). An 8-well unit of the TRANSIL assay plate was used for each compound : six wells contain increasing concentrations of HSA immobilized on silica beads suspended in PBS at pH 7.4, and two wells contain buffer only and serve as references to account for nonspecific binding. The TRANSIL assay plate was thawed for 3 h at rt and centrifuged at 750g for 5 s. Then, 15 μ L of an 80 μ M stock solution of the compound in PBS (for a final concentration of 5 μ M) were added to each well of the 8-well unit, and the plate was incubated on a plate shaker at 1000 rpm for 12 min at rt. After this time, the plate was centrifuged at 750gfor 10 min, and 50 μL of the supernatants were transferred for analytical quantification by HPLC-MS using selected ion monitoring (SIM). The binding percentage was calculated from the remaining free compound concentration in the supernatant of each well, using the spreadsheet and algorithms supplied with the kit.
Stability in mouse serum. Stability for selected compounds and reference compound enalapril was assayed by adding 625 μL of a 250 μM solution of test compound in PBS pH 7.4 to 1.875 mL of mouse serum (Europa Bioproducts, EQSM-0100) pre-warmed a t 37 °C. Next, solutions were incubated at 37 °C for 4 h, taking aliquots of 250 μL at t = 0, 1, 2, 3, and 4 h. Each aliquot was quenched in 375 μL of cold ACN, vortexed, incubated for 10 min in ice and centrifuged at 39000g for 10 min. Supernatants were then analyzed by HPLC-MS using SIM mode, and quantification was estimated by using the peak area integration normalized with an internal standard.
Stability assay in mouse liver homogenate. Stability of test compounds and reference compound propranolol was determined by incubation in liver homogenates following previously reported procedure. […]

human D1R [3] = target: T1, human D1R; experiment: potentiator-mode cAMP assay (HTRF) in SK-N-MC neuroblastoma cells endogenously expressing human D1R; type: cell-based; conditions: for potentiation of DA effect at different fixed concentrations: 3: 0.1–10 μM, 26: 1, 5 and 10 μM; for cAMP response in the absence of DA (agonist activity): no DA

T1 sequence (P21728 whole entry): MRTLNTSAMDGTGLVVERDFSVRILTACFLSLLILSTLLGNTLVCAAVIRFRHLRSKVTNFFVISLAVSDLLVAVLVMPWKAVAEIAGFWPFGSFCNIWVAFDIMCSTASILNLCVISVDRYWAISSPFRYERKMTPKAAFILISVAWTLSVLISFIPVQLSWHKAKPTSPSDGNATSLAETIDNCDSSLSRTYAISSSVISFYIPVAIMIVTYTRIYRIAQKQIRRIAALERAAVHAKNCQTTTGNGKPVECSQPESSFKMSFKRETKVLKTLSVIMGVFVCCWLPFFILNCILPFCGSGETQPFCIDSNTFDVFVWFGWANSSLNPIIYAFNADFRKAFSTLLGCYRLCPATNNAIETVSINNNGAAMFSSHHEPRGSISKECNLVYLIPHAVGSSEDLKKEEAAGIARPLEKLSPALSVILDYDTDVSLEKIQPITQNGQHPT
T3 sequence (P02768 25-609): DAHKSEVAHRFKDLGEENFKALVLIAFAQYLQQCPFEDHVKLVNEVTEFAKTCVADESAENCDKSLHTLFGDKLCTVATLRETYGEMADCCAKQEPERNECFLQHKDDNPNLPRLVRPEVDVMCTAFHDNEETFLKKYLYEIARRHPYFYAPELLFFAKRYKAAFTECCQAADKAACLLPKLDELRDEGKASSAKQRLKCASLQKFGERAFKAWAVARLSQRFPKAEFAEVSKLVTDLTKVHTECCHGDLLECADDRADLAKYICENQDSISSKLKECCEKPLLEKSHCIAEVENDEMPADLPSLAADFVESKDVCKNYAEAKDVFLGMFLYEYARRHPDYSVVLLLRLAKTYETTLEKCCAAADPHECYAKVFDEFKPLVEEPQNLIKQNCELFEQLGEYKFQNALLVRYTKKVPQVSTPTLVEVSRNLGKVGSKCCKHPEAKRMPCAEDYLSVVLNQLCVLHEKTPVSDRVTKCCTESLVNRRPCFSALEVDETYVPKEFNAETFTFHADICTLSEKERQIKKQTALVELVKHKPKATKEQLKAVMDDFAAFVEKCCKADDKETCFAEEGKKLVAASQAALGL
T2 sequence (P21918 whole entry): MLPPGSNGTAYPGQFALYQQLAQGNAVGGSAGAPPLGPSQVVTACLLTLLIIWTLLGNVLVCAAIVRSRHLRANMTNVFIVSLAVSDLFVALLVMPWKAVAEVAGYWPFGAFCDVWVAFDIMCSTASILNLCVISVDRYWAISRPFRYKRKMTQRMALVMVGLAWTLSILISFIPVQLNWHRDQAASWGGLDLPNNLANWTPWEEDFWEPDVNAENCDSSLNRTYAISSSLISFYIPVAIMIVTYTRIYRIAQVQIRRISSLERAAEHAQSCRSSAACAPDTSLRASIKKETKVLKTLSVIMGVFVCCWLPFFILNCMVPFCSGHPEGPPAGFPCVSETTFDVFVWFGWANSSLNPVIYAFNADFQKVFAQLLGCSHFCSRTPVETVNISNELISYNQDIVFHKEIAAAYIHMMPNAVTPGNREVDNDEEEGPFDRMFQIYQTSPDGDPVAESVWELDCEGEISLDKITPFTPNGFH

SMILES	Emax (human D1R [1]; SK-N-MC, concentration–response curve of the compound over DA EC70, read-out: % maximum increase (efficacy over DA EC70))	EC50 (human D1R [1])	enhancement of DA Emax at human D5 receptor (human D5R)	HSA binding (%) [2]	Kd ([2]; read-out: HSA dissociation constant Kd)	reversibility of the potentiation (human D1R [3]; 10 μM for 10 min then washing with assay buffer)	potentiation of DA effect at different fixed concentrations (human D1R [3])	cAMP response in the absence of DA (agonist activity) (human D1R [3])	receptor desensitization (human D1R [3]; preincubation for 1 h with 10 μM compound)
CS(=N)(=O)c1ccc(-c2ccccc2OCF)cc1 (centres unmarked) [Compound 26, 2-(Fluoromethoxy)-4′-(S-methanesulfonimidoyl)-1,1′-biphenyl]	45 ± 7%	0.06 ± 0.01 µM	subtype selectivity	79%	156 µM	reversible effect	potentiation of the DA Emax in a concentration-dependent manner	no cAMP response	does not induce receptor desensitization
O=Cc1ccc(-c2ccccc2OCF)cc1 [Compound 3, 2′-(Fluoromethoxy)[1,1′-biphenyl]-4-carbaldehyde]	–	12.7 ± 2.4 µM	did not enhance DA Emax	> 99%	–	–	concentration-dependent potentiation of DA effect	No cAMP response	–
